According to patent US12692274B2, “Tetrahydroisoquinoline derivatives for the treatment of red blood disorders and inflammatory diseases” (Sanofi, priority 2020, dated 2026):
pEC50, pIC50: −log10 of the molar value. Values joined by “and” are separate entries in the source; they are usually repeats but may differ in a detail not shown here. Equal values may be shown once.

What was measured:
[1] = molecular target: HIS-Keap1 full length / Biotin-Nrf2 (16-mer) (Homo sapiens, UniProt Q14145); assay: biochemical
HIS-Keap1 full length / Biotin-Nrf2 (16-mer), sequence (Q14145 whole entry): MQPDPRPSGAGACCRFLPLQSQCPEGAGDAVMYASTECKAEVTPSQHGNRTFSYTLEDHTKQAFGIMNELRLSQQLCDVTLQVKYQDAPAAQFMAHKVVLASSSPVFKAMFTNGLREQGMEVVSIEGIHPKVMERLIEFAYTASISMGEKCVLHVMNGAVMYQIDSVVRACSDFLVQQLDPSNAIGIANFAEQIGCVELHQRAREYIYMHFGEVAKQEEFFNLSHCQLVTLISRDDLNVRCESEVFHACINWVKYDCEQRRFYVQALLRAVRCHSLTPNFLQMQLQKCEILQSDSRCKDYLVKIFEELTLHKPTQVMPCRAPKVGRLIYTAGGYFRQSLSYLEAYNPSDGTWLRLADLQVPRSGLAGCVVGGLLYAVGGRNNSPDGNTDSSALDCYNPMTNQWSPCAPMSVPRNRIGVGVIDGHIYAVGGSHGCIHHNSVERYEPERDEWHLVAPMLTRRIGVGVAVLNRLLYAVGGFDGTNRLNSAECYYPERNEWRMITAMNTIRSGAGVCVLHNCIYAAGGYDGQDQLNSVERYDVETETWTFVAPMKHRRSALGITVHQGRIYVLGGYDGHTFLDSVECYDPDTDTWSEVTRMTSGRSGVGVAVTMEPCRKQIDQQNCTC

[2] = test system: NQO1 activation in BEAS-2B cells; assay: BEAS-2B cellular MTT assay of NQO1 activation, 0% HSA; format: cell-based
Procedure, shortened: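 For the 0% HSA condition, cells were seeded into collagen plates in HSA-free medium. Culture was BEAS-2B in BEBM plus BEGM SingleQuots lacking GA-1000, held under 70% confluence, at a seeding density reaching 95-100% confluence by 48 h.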

[3] = test system: NQO1 activation in BEAS-2B cells; assay: BEAS-2B cellular MTT assay of NQO1 activation, 0.3% HSA; format: cell-based
Procedure, shortened: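 MTT read-out in BEAS-2B cells grown in BEBM with SingleQuots, no GA-1000, kept below 70% confluence; plates coated with collagen, with 0.3% or 0% HSA medium, seeded to 95-100% confluency at 48 h, 37 °C, 5% CO2.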

[4] = Homo sapiens, serum free, read-out: BEAS EC50 (nM) serum free
[5] = serum free, read-out: BEAS EC50 (nM) serum free
[6] = Homo sapiens, BEAS+, read-out: BEAS+ EC50
[7] = Homo sapiens, Serum Free W, read-out: BEAS EC50 (nM) Serum Free W
[8] = Serum Free W, read-out: BEAS EC50 (nM) Serum Free W
[9] = BEAS+ W, read-out: BEAS+ W EC50
[10] = Homo sapiens, BEAS+ W, read-out: BEAS+ W EC50

SMILES | pIC50 [1] | EC50 [2, 4] [nM] | EC50 [2, 5] | pEC50 ([3]; BEAS+, read-out: BEAS+ EC50) | pEC50 [3, 6] | EC50 [2, 7] [nM] | EC50 [2, 8] [nM] | pEC50 [3, 9] | pEC50 [3, 10]
COc1cc2ccc1C(=O)N1CCc3ccc(cc3C1)C(CC(=O)O)c1ccc3c(nnn3CCCCC2)c1C (stereo not shown) [Compound 191] | 7.71 and 7.69 | 11.4 | 18 nM | 7.74 | 7.69 | – | – | – | –
Cc1c2ccc3c1nnn3CCCCCCc1ccc3nc(n(C)c3c1)C(=O)N1CCc3ccc(cc3C1)C2CC(=O)O (stereo not shown) [Compound 192] | 8.15 and 8.17 | 75.6 | 63.7 nM | 6.90 | 6.94 | – | – | – | –
O=C(O)CC1c2ccc(nc2)OCCCCCc2cnc(c(F)c2)C(=O)N2CCc3ccc1cc3C2 (stereo not shown) [Compound 194] | 7.61 and 7.64 | 870 | 1100 nM | 6.08 | 5.97 | – | – | – | –
Cc1cc2ccc1C(=O)N1CCc3ccc(cc3C1)C(CC(=O)O)c1cnc(nc1C)OCCCCO2 (stereo not shown) [Compound 195] | 7.21 and 7.16 | 5570 | > 10000 nM | – | < 5.00 | – | – | – | –
O=C(O)CC1c2ccc(nc2)OCCCCCc2cnc(nc2)C(=O)N2CCc3ccc1cc3C2 (stereo not shown) [Compound 196] | 6.89 and 6.93 | > 10000 | – | – | < 5.00 | – | – | – | –
Cc1c2ccc3c1nnn3CCCCCCc1ccc(cc1)C(=O)N1CCc3ccc(cc3C1)[C@H]2CC(=O)O [Compound 202] | 8.14 and 8.17 and 8.15 | 58.2 | 55.5 nM and 69.1 nM | 6.53 and 6.47 | 6.70 | – | – | – | –
Cc1c2ccc3c1nnn3CCCCCc1ccc3c(c1)nc(n3C)C(=O)N1CCc3ccc(cc3C1)C2CC(=O)O (stereo not shown) [Compound 205] | 8.57 and 8.52 | 318 | 329 nM | 6.30 | 6.43 | – | – | – | –
Cc1c2ccc3c1nnn3CCCCCCc1ccc3c(c1)nc(n3C)C(=O)N1CCc3ccc(cc3C1)C2CC(=O)O (stereo not shown) [Compound 206] | 8.28 and 8.24 | 64 | 38.5 nM | 6.93 | 7.05 | – | – | – | –
Cc1c2cnc3c1nnn3CCCCCCOc1cc(F)c(c(F)c1)C(=O)N1CCc3ccc(cc3C1)[C@@H]2CC(=O)O [Compound 207] | 8.85 | – | – | – | – | 23.7 | 32.1 | 7.24 | 7.18
Cc1c2cnc3c1nnn3CCCCCCOc1cc(F)c(c(F)c1)C(=O)N1CCc3ccc(cc3C1)[C@H]2CC(=O)O [Compound 208] | 8.96 | – | – | – | – | 10.1 | 14.9 | 7.57 | 7.60
Cc1cc2ccc1C(=O)N1CCc3ccc(cc3C1)C(CC(=O)O)c1ccc(nc1)OCCCCO2 (stereo not shown) [Compound 209] | 9.40 and 9.30 | 469 | 494 nM | 6.04 | 6.07 | – | – | – | –
O=C(O)CC1c2ccc(nc2)OCCCCOc2cc(F)c(c(F)c2)C(=O)N2CCc3ccc1cc3C2 (stereo not shown) [Compound 210] | 8.43 and 8.40 | 482 | 475 nM | 6.07 | 5.99 | – | – | – | –
O=C(O)CC1c2ccc(nc2)OCCCCOc2ccc(cc2Cl)C(=O)N2CCc3ccc1cc3C2 (stereo not shown) [Compound 212] | 8.11 and 8.24 | 190 | 254 nM | 6.09 | 6.22 | – | – | – | –
O=C(O)CC1c2ccc3c(c2)CN(CC3)C(=O)c2ncc(cc2F)OCCCCCCn2nnc3c(Cl)c1ccc32 (stereo not shown) [Compound 213] | 8.82 and 8.80 | 118 | 98.4 nM | 6.90 | 6.83 | – | – | – | –
O=C(O)CC1c2ccc3c(c2)CN(CC3)C(=O)c2ccc(cn2)OCCCCCCn2nnc3c(Cl)c1ccc32 (stereo not shown) [Compound 214] | 8.64 and 8.68 | 245 | 132 nM | 6.62 | 6.63 | – | – | – | –
O=C(O)CC1c2ccc3c(c2)CN(CC3)C(=O)c2ncc(cc2F)CCCCCn2nnc3c(Cl)c1ccc32 (stereo not shown) [Compound 215] | 9.00 and 8.96 | 243 | 251 nM | 6.51 | 6.46 | – | – | – | –
Cc1c2cnc3c1nnn3CCCCCCc1ccc(cc1)C(=O)N1CCc3ccc(cc3C1)C2CC(=O)O (stereo not shown) [Compound 216] | 8.68 and 8.64 | 1.8 | 2.5 nM | 7.55 | 7.45 | – | – | – | –
Cc1c2ccc3c1nnn3CCCCCCOc1cnc(c(F)c1)C(=O)N1CCc3ccc(cc3C1)C2CC(=O)O (stereo not shown) [Compound 217] | 8.72 and 8.68 | 371 | 360 nM | 6.52 | 6.37 | – | – | – | –
Cc1cc2ccc1C(=O)N1CCc3ccc(cc3C1)C(CC(=O)O)c1cnc3c(nnn3CCCCCCO2)c1C (stereo not shown) [Compound 218] | 9.10 | 27.5 | 39.7 nM | 7.43 | 7.53 | – | – | – | –
Cc1c2ccc3c1nnn3CCCCCc1cnc(c(F)c1)C(=O)N1CCc3ccc(cc3C1)C2CC(=O)O (stereo not shown) [Compound 219] | 8.89 and 8.82 | 180 | 208 nM | 6.68 | 6.64 | – | – | – | –
O=C(O)CC1c2ccc3c(c2)CN(CC3)C(=O)c2ccc(cn2)CCCCCn2nnc3c(Cl)c1ccc32 (stereo not shown) [Compound 220] | 8.85 and 8.92 | 178 | 182 nM | 6.46 | 6.50 | – | – | – | –
Cc1c2cnc3c1nnn3CCCCCCOc1ccc(c(F)c1)C(=O)N1CCc3ccc(cc3C1)C2CC(=O)O (stereo not shown) [Compound 222] | 8.80 and 8.82 | 17.2 | 14.2 nM | 7.41 | 7.32 | – | – | – | –
O=C(O)CC1c2ccc3c(c2)CN(CC3)C(=O)c2ncc(cc2F)CCCCCCn2nnc3c(Cl)c1ccc32 (stereo not shown) [Compound 224] | 8.68 and 8.70 | 400 | 296 nM | 6.50 | 6.49 | – | – | – | –
O=C(O)CC1c2ccc3c(c2)CN(CC3)C(=O)c2ccc(cn2)CCCCCCn2nnc3c(Cl)c1ccc32 (stereo not shown) [Compound 225] | 8.60 and 8.62 | 169 | 175 nM | 6.47 | 6.52 | – | – | – | –
O=C(O)CC1c2cnc(nc2)OCCCCc2ccc(c(Cl)c2)C(=O)N2CCc3ccc1cc3C2 (stereo not shown) [Compound 226] | 6.61 | > 10000 | – | – | < 5.00 | – | – | – | –
Cc1c2ccc3c1nnn3CCCCCCOc1ccc(nc1)C(=O)N1CCc3ccc(cc3C1)C2CC(=O)O (stereo not shown) [Compound 227] | 8.68 | 517 | 568 nM | 6.03 | 5.95 | – | – | – | –
Cc1c2ccc3c1nnn3CCCCCc1ccc(nc1)C(=O)N1CCc3ccc(cc3C1)C2CC(=O)O (stereo not shown) [Compound 228] | 8.89 | 524 | 471 nM | 6.18 | 6.11 | – | – | – | –
Cc1c2ccc3c1nnn3CCCCCCc1ccc(nc1)C(=O)N1CCc3ccc(cc3C1)C2CC(=O)O (stereo not shown) [Compound 230] | 8.32 | 384 | 471 nM | 6.02 | 5.96 | – | – | – | –
C[C@H](C(=O)O)[C@@H]1c2ccc3c(c2)CN(CC3)C(=O)c2ccc(cc2)OCCCCCn2nnc3cc1ccc32 [Compound 231] | 8.49 | 153 | 228 nM | 6.64 | 6.56 | – | – | – | –
C[C@@H](C(=O)O)[C@H]1c2ccc3c(c2)CN(CC3)C(=O)c2ccc(cc2)OCCCCCn2nnc3cc1ccc32 [Compound 232] | 8.85 | 7.2 | 4.6 nM | 8.08 | 8.05 | – | – | – | –
